Values belong to the molecule of their own block, whether it stands above or below them.
Tests used:
Assay type in all cases: binding
[1] = target: T1, lysosomal acid α-glucosidase (rhGAA) (Homo sapiens, UniProt P10253); experiment: DSF thermal shift at […], pH […]; details: read-out: delta_Tm
T1 construct: gene GAA; recombinant human GAA (Myozyme)

[2] = target: T1, lysosomal acid α-glucosidase (rhGAA); experiment: DSF thermal shift at […], pH […]; details: read-out: delta_Tm; remark: listed apart in the source
[3] = target: T1, lysosomal acid α-glucosidase (rhGAA); experiment: DSF (SYPRO Orange) titration at pH […] with Kd from cooperative model fit
[4] = target: T1, lysosomal acid α-glucosidase (rhGAA); experiment: DSF thermal shift, dose-dependent; rescue of rhGAA activity at pH […]; details: read-out: delta_Tm

SMILES: OC[C@H]1NC[C@H](O)[C@@H](O)[C@@H]1O [compound 1, DNJ]
ΔTm at 100 µM [1]: 12.1 °C

ΔTm at 10000 µM [2]: 9.6 ± 0.2 °C
SMILES: CC(=O)N[C@@H](CS)C(=O)O [compound 3, N-acetylcysteine]

Kd [3]: 9.16 ± 1.02 mM
SMILES: C[N+](C)(C)C[C@H](O)CC(=O)[O-] [compound 6, L-carnitine]

SMILES: C[N+](C)(C)C[C@@H](O)CC(=O)[O-] [compound 7, D-carnitine]
ΔTm at 5000 µM [4]: 4.9 ± 0.1 °C
